From ChEMBL document CHEMBL5729568, “Ras inhibitors” (2023)

How the values were obtained:
[1] = (§1) Biochemical Assay: A variety of Ras proteins may be inhibited by compounds of the present invention (e.g., K-Ras, N-Ras, H-Ras, and mutants thereof at positions 12, 13 and 61, such as G12C, G12D, G12V, G12S, G13C, G13D, and Q61L, and others described herein). The purpose of this biochemical assay is to measure the ability of test compounds to covalently label nucleotide-loaded K-Ras isoforms. […] The sample is incubated at 25? C. for a time period of up to 24 hours prior to quenching by the addition of 10 uL of 5% Formic Acid. Quenched samples are centrifuged at 15000 rpm for 15 minutes in a benchtop centrifuge before injecting a 10 uL aliquot onto a reverse phase C4 column and eluting into the mass spectrometer with an increasing acetonitrile gradient in the mobile phase. Analysis of raw data may be carried out using Waters MassLynx MS software, with % bound calculated from the deconvoluted protein peaks for labeled and unlabeled K-Ras.
[2] = as §1; remark: listed apart in the source
[3] = as §1; remark: listed apart in the source
[4] = as §1; remark: listed apart in the source
[5] = as §1; remark: listed apart in the source

| IC50 [1] | IC50 [2] | IC50 [3] | IC50 [4] | IC50 [5] | SMILES |
| --- | --- | --- | --- | --- | --- |
| in the range around 5.5 µM | in the range around 0.55 µM | in the range around 5.5 µM | in the range around 5.5 µM | in the range around 0.055 µM | CCn1c(-c2cccnc2C(C)OC)c2c3cc(ccc31)-c1cccc(c1)C[C@H](NC(=O)[C@H](C(C)C)N(C)C(=O)[C@H]1CCN(C(=O)/C=C/C(F)F)C1)C(=O)N1CCC[C@H](N1)C(=O)OCC(C)(C)C2 (stereo not given in full) |
| – | in the range around 5.5 µM | > 10 µM | – | in the range around 5.5 µM | C=CC(=O)N1CC(OCC(C(=O)N[C@H]2Cc3cccc(c3)-c3ccc4c(c3)c(c(-c3cccnc3C(C)OC)n4CC)CC(C)(C)COC(=O)[C@@H]3CCCN(N3)C2=O)C(C)C)C1 (stereo not given in full) |
| in the range around 5.5 µM | in the range around 0.55 µM | in the range around 5.5 µM | in the range around 5.5 µM | in the range around 0.55 µM | CCn1c(-c2cccnc2C(C)OC)c2c3cc(ccc31)-c1cccc(c1)C[C@H](NC(=O)[C@H](C(C)C)N(C)C(=O)[C@H]1CCN(C(=O)/C=C/CF)C1)C(=O)N1CCC[C@H](N1)C(=O)OCC(C)(C)C2 (stereo not given in full) |
| in the range around 0.055 µM | in the range around 0.055 µM | in the range around 0.055 µM | in the range around 0.055 µM | – | C=CC(=O)N1CC[C@H](C(=O)N(C)[C@H](C(=O)N[C@H]2Cc3cc(O)cc(c3)-c3ccc4c(c3)c(c(-c3cnccc3[C@H](C)OC)n4CC)CC(C)(C)COC(=O)[C@@H]3CCCN(N3)C2=O)C(C)C)C1 |
| in the range around 5.5 µM | in the range around 5.5 µM | in the range around 5.5 µM | > 10 µM | in the range around 0.055 µM | CCn1c(-c2cccnc2C(C)OC)c2c3cc(ccc31)-c1cccc(c1)C[C@H](NC(=O)[C@H](C(C)C)N(C)C(=O)[C@H]1CCN(C(=O)C#C[C@@H]3COCCN3C)C1)C(=O)N1CCC[C@H](N1)C(=O)OCC(C)(C)C2 (stereo not given in full) |
| > 10 µM | > 10 µM | > 10 µM | > 10 µM | > 10 µM | C=CC(=O)N1CC(OCC(C(=O)N[C@H]2Cc3cc(cc(C(F)F)c3)-c3ccc4c(c3)c(c(-c3cccnc3C(C)OC)n4CC(F)(F)F)CC(C)(C)COC(=O)[C@@H]3CCCN(N3)C2=O)C(C)C)C1 (stereo not given in full) |
| in the range around 0.55 µM | in the range around 0.55 µM | in the range around 0.55 µM | – | – | C=CC(=O)N1CC[C@H](C(=O)N(C)[C@H](C(=O)N[C@H]2Cc3cc(O)cc(c3)-c3ccc4c(c3)c(c(-c3ccncc3CCOC)n4CC)CC(C)(C)COC(=O)[C@@H]3CCCN(N3)C2=O)C(C)C)C1 |
| > 10 µM | > 10 µM | > 10 µM | > 10 µM | in the range around 5.5 µM | C=CC(=O)N1CC(OCC(C(=O)N[C@H]2Cc3cccc(c3)-c3ccc4c(c3)c(c(-c3cccnc3C(C)OC)n4CC(F)(F)F)CC(C)(C)COC(=O)[C@@H]3CCCN(N3)C2=O)C(C)C)C1 (stereo not given in full) |
| in the range around 0.55 µM | in the range around 5.5 µM | in the range around 5.5 µM | – | – | C=CC(=O)N1CC[C@H](C(=O)N(C)[C@H](C(=O)N[C@H]2Cc3cc(OC(=O)CCC(=O)O)cc(c3)-c3ccc4c(c3)c(c(-c3ccccc3CCOC)n4CC)CC(C)(C)COC(=O)[C@@H]3CCCN(N3)C2=O)C(C)C)C1 |
| in the range around 5.5 µM | – | – | – | – | C=CC(=O)N1CC[C@H](C(=O)N(C)[C@H](C(=O)N[C@H]2Cc3cc(O)cc(c3)-c3cc(F)c4c(c3)c(c(-c3ccccc3CCOC)n4CC)CC(C)(C)COC(=O)[C@@H]3CCCN(N3)C2=O)C(C)C)C1 |
| > 10 µM | > 10 µM | > 10 µM | > 10 µM | in the range around 0.055 µM | CCn1c(-c2cccnc2C(C)OC)c2c3cc(ccc31)-c1cccc(c1)C[C@H](NC(=O)CCOC1CN(C(=O)C#CC(C)(C)N(C)C)C1)C(=O)N1CCC[C@H](N1)C(=O)OCC(C)(C)C2 (stereo not given in full) |
| in the range around 0.55 µM | < 0.01 µM | in the range around 0.55 µM | in the range around 0.55 µM | < 0.01 µM | CCn1c(-c2cccnc2C(C)OC)c2c3cc(ccc31)-c1cc(O)cc(c1)C[C@H](NC(=O)[C@H](C(C)C)N(C)C(=O)c1ncc(NC(=O)/C=C/CN(C)C)n1C)C(=O)N1CCC[C@H](N1)C(=O)OCC(C)(C)C2 (stereo not given in full) |
| > 10 µM | > 10 µM | > 10 µM | > 10 µM | in the range around 0.55 µM | CCn1c(-c2cccnc2C(C)OC)c2c3cc(ccc31)-c1cc(cc(C(F)F)c1)C[C@H](NC(=O)C(COC1CN(C(=O)C#CC(C)(C)N(C)C)C1)C(C)C)C(=O)N1CCC[C@H](N1)C(=O)OCC(C)(C)C2 (stereo not given in full) |
| in the range around 0.55 µM | in the range around 5.5 µM | in the range around 0.55 µM | – | – | C=CC(=O)N1CC[C@H](C(=O)N(C)[C@H](C(=O)N[C@H]2Cc3cc(O)cc(c3)-c3ccc4c(c3)c(c(-c3ccccc3CO)n4CC)CC(C)(C)COC(=O)[C@@H]3CCCN(N3)C2=O)C(C)C)C1 |
| in the range around 5.5 µM | in the range around 0.55 µM | in the range around 5.5 µM | – | – | C=CC(=O)N1CC[C@]2(CCN(C(=O)N(C)[C@H](C(=O)N[C@@H]3Cc4cc(O)cc(c4)-c4ccc5c(c4)c(c(-c4ccccc4CCOC)n5CC)CC(C)(C)COC(=O)[C@@H]4CCCN(N4)C3=O)C(C)C)C2=O)C1 |
| > 10 µM | in the range around 5.5 µM | > 10 µM | > 10 µM | in the range around 5.5 µM | C=CC(=O)N1CC[C@H](C(=O)N(C)[C@H](C(=O)N[C@H]2Cc3cccc(c3)-c3ccc4c(c3)c(c(-c3cc(C5=CCN(C)CC5)cnc3C(C)OC)n4CC)CC(C)(C)COC(=O)[C@@H]3CCCN(N3)C2=O)C(C)C)C1 (stereo not given in full) |
| > 10 µM | > 10 µM | > 10 µM | > 10 µM | > 10 µM | C=CC(=O)N1CC(OCC(C(=O)N[C@H]2Cc3cc(cc(C(F)F)c3)-c3ccc4c(c3)c(c(-c3cccnc3C(C)OC)n4CC)CC(C)(C)COC(=O)[C@@H]3CCCN(N3)C2=O)C(C)C)C1 (stereo not given in full) |
| in the range around 5.5 µM | in the range around 0.055 µM | in the range around 5.5 µM | in the range around 5.5 µM | in the range around 0.055 µM | C=CC(=O)Nc1cnc(C(=O)N(C)[C@H](C(=O)N[C@H]2Cc3cccc(c3)-c3ccc4c(c3)c(c(-c3cccnc3C(C)OC)n4CC)CC(C)(C)COC(=O)[C@@H]3CCCN(N3)C2=O)C(C)C)n1C (stereo not given in full) |
| in the range around 5.5 µM | in the range around 0.55 µM | in the range around 5.5 µM | in the range around 5.5 µM | < 0.01 µM | CCn1c(-c2cccnc2C(C)OC)c2c3cc(ccc31)-c1cccc(c1)C[C@H](NC(=O)[C@H](C(C)C)N(C)C(=O)[C@H]1CCN(C(=O)C#CC3CCO3)C1)C(=O)N1CCC[C@H](N1)C(=O)OCC(C)(C)C2 (stereo not given in full) |
| in the range around 0.55 µM | in the range around 5.5 µM | in the range around 0.55 µM | – | – | CCn1c(-c2ccccc2CCOC)c2c3cc(ccc31)-c1cc(O)cc(c1)C[C@H](NC(=O)[C@H](C(C)C)N(C)C(=O)[C@H]1CCN(C(=O)/C=C/CN(C)C)C1)C(=O)N1CCC[C@H](N1)C(=O)OCC(C)(C)C2 |
| in the range around 5.5 µM | – | in the range around 5.5 µM | – | in the range around 5.5 µM | C=CC(=O)C1C[C@@H](C(=O)N(C)[C@H](C(=O)N[C@@H]2Cc3cc(O)cc(c3)-c3cnc4c(c3)c(c(-c3ccccc3CCOC)n4CC)CC(C)(C)COC(=O)[C@@H]3CCCN(N3)C2=O)C(C)C)CN1 (stereo not given in full) |
| in the range around 5.5 µM | in the range around 5.5 µM | in the range around 5.5 µM | in the range around 5.5 µM | in the range around 0.55 µM | C=CC(=O)N1CC(OCC(C(=O)N[C@H]2Cc3nc(cs3)-c3ccc4c(c3)c(c(-c3cccnc3C(C)OC)n4CC)CC(C)(C)COC(=O)[C@@H]3CCCN(N3)C2=O)C(C)C)C1 (stereo not given in full) |
| – | – | in the range around 5.5 µM | – | – | C=CC(=O)N1CC2(CCN([C@H](C(=O)N[C@H]3Cc4cc(O)cc(c4)-c4ccc5c(c4)c(c(-c4ccccc4CCOC)n5CC)CC(C)(C)COC(=O)[C@@H]4CCCN(N4)C3=O)C(C)C)C2=O)C1 |
| in the range around 5.5 µM | in the range around 5.5 µM | in the range around 5.5 µM | in the range around 5.5 µM | in the range around 0.55 µM | C=CC(=O)N1CC[C@H](C(=O)N(C)[C@H](C(=O)N[C@H]2Cc3cc(O)cc(c3)-c3ccc4c(c3)c(c(-c3cccnc3[C@H](C)OC)n4CC)CC(C)(C)COC(=O)[C@@H]3CCCN(N3)C2=O)C(C)C)C1 (atropisomer M) |
| – | < 0.01 µM | – | – | < 0.01 µM | CCn1c(-c2cnccc2COC)c2c3cc(ccc31)-c1cc(O)cc(c1)C[C@H](NC(=O)[C@H](C(C)C)N(C)C(=O)[C@H]1CCN(C(=O)C#CCN(C)C)C1)C(=O)N1CCC[C@H](N1)C(=O)OCC(C)(C)C2 (atropisomer, axis not shown) |

| SMILES | IC50 [1] | IC50 [2] | IC50 [3] | IC50 [4] | IC50 [5] |
| --- | --- | --- | --- | --- | --- |
| C=CC(=O)N1CC[C@H](C(=O)N(C)[C@H](C(=O)N[C@H]2Cc3cc(OC(=O)NCC(=O)O)cc(c3)-c3ccc4c(c3)c(c(-c3ccccc3CCOC)n4CC)CC(C)(C)COC(=O)[C@@H]3CCCN(N3)C2=O)C(C)C)C1 | in the range around 5.5 µM | in the range around 0.55 µM | in the range around 5.5 µM | – | – |
| CCn1c(-c2cccnc2[C@H](C)OC)c2c3cc(ccc31)-c1cc(O)cc(c1)C[C@H](NC(=O)[C@H](C(C)C)N(C)C(=O)c1nc(NC(=O)/C=C/CN(C)C)cs1)C(=O)N1CCC[C@H](N1)C(=O)OCC(C)(C)C2 | – | in the range around 0.055 µM | in the range around 5.5 µM | in the range around 5.5 µM | – |
